Data reported in patent US20100041089A1, “IMPROVED METHOD FOR DETECTING CHEMICAL […]” (priority 2006, published 2010).

Tested on: yeast genes (expressed mRNA)
Assay: DNA chip measurement of expressed mRNA of yeast genes after culture with a toxic chemical substance
Type: cell-based, Saccharomyces cerevisiae S288C
Settings: for level of expressed mRNA in the presence of chemical substance / level in the absence of chemical substance: cultured two hours with the chemical substance; for The level of expressed mRNA in the presence of chemical substance/The level of expressed mRNA in the absence of chemical substance: cultured two hours with substance
Description: Yeast (Saccharomyces cerevisiae S288C (a SUC2mal mel gap2 CUP1)) were cultured at 25° C. on YPD medium (yeast extract 1%, polypeptone 2%, glucose 2%). One of toxic chemical substances was added to the cell at logarithmic growth phase, and the cell was further cultured for two hours. Cell was cultured without any chemical substance in the same condition, and was used as a control. Concentrations of the chemical substances were defined to inhibit the growth of the yeast but not lead to death.
After the completion of cultivation, the culture was centrifuged to collect the cells. To the cells, sodium acetate buffer (50 mM sodium acetate, 10 mM EDTA, 1% SDS) was added, and the mixture was shaken at 65° C. for five minutes, followed by returning to room temperature, and obtaining the supernatant, which procedure was repeated two times. To the supernatant, ½ amount of a solution of phenol/chloroform (1:1) was added, and the mixture was centrifuged to give a supernatant, an equal amount of chloroform was added, and the mixture was centrifuged to give a supernatant. To the supernatant, an equal amount of isopropanol containing 0.3 M sodium acetate was added, and the mixture was allowed to stand at room temperature for 30 minutes, after which the mixture was centrifuged to give sediment of the whole RNAs. Seventy % ethanol was added to the sediment, and the mixture was again centrifuged to give sediment, which was then dried and dissolved in water. mRNA was isolated from the whole RNAs as followings. In view of the fact that a poly A chain is attached to the 3′ terminus of mRNA, a polynucleotide having a poly T structure which was immobilized on the surface of latex beads was used to trap the mRNA, and then the mRNA was washed and eluted with spine column (Oligotex-dT30<Super>mRNA Purification Kit, Takara). Reverse transcription of the mRNA was conducted with a reverse transcriptase (Super Script II Reverse Transcriptase; catalogue No. 18064-014, GibcoBRL) using fluorescence-labeled nucleotides to give cDNAs that were introduced with Cy3-dUTP or Cy5-dUTP during the reverse transcription.
The labeled cDNAs were dissolved in TE buffer (10 mM Tris-HCl/1 mM EDTA, pH 8.0), and the solution was dropped on the DNA chip containing the whole genes of yeast (DNA Chip Research Inc. Japan) so that the cDNAs were hybridized on the DNA chip at 65° C. for over 12 hours. The fluoresces intensity of the DNA chip was read with a scanner, and the ratio relative to the fluorescence intensity resulting from the absence of chemical substance was estimated as the following, which is shown in Tables 1 to 9.
In the Tables, “Intensity” indicated in the rightmost column is a value of the level of expressed mRNA of each gene in control cells as divided by the average level of the expressions of the whole genes. A gene of which mRNA level is lower in control, and is higher in cases of addition of chemical substance, is especially useful in the detection of toxic substances.
Here, when a ratio of an amount of mRNA expressed in the presence of the chemical substance to an amount of mRNA expressed in the absence of the chemical substance is two or more, then it is considered significant.

[Cl][Cd][Cl] [(2), CdCl2]
level of expressed mRNA in the presence of chemical substance / level in the absence of chemical substance (yeast gene YDR128W): 3.9 | level of expressed mRNA in the presence of chemical substance / level in the absence of chemical substance (yeast gene YDR133C): 1.1 | level of expressed mRNA in the presence of chemical substance / level in the absence of chemical substance (yeast gene YDR250C): 1.4 | level of expressed mRNA in the presence of chemical substance / level in the absence of chemical substance (yeast gene YDR278C): 3.2 | level of expressed mRNA in the presence of chemical substance / level in the absence of chemical substance (yeast gene YDR281C): 2.6 | The level of expressed mRNA in the presence of chemical substance/The level of expressed mRNA in the absence of chemical substance (yeast gene YDR330W): 1.5 | level of expressed mRNA in the presence of chemical substance / level in the absence of chemical substance (yeast gene YDR366C): 2.0 | The level of expressed mRNA in the presence of chemical substance/The level of expressed mRNA in the absence of chemical substance (yeast gene YDR411C): 2.8 | The level of expressed mRNA in the presence of chemical substance/The level of expressed mRNA in the absence of chemical substance (yeast gene YDR511W): 1.7 | The level of expressed mRNA in the presence of chemical substance/The level of expressed mRNA in the absence of chemical substance (yeast gene YDR545W): 1.2 | The level of expressed mRNA in the presence of chemical substance/The level of expressed mRNA in the absence of chemical substance (yeast gene YEL001C): 1.0 | The level of expressed mRNA in the presence of chemical substance/The level of expressed mRNA in the absence of chemical substance (yeast gene YER004W): 1.5 | The level of expressed mRNA in the presence of chemical substance/The level of expressed mRNA in the absence of chemical substance (yeast gene YER035W): 1.6 | The level of expressed mRNA in the presence of chemical substance/The level of expressed mRNA in the absence of chemical substance (yeast gene YER079W): 1.6 | The level of expressed mRNA in the presence of chemical substance/The level of expressed mRNA in the absence of chemical substance (yeast gene YER106W): 0.7 | The level of expressed mRNA in the presence of chemical substance/The level of expressed mRNA in the absence of chemical substance (yeast gene YER158C): 0.9 | The level of expressed mRNA in the presence of chemical substance/The level of expressed mRNA in the absence of chemical substance (yeast gene YER163C): 2.4 | The level of expressed mRNA in the presence of chemical substance/The level of expressed mRNA in the absence of chemical substance (yeast gene YER175C): 1.2 | The level of expressed mRNA in the presence of chemical substance/The level of expressed mRNA in the absence of chemical substance (yeast gene YFL006W): 2.8 | The level of expressed mRNA in the presence of chemical substance/The level of expressed mRNA in the absence of chemical substance (yeast gene YFL010C): 4.8 | The level of expressed mRNA in the presence of chemical substance/The level of expressed mRNA in the absence of chemical substance (yeast gene YFL024C): 1.1 | The level of expressed mRNA in the presence of chemical substance/The level of expressed mRNA in the absence of chemical substance (yeast gene YFL032W): 1.5 | level of expressed mRNA in the presence of chemical substance / level in the absence of chemical substance (yeast gene YFR026C): 2.0 | The level of expressed mRNA in the presence of chemical substance/The level of expressed mRNA in the absence of chemical substance (yeast gene YGL037C): 2.7 | The level of expressed mRNA in the presence of chemical substance/The level of expressed mRNA in the absence of chemical substance (yeast gene YGL047W): 1.9 | The level of expressed mRNA in the presence of chemical substance/The level of expressed mRNA in the absence of chemical substance (yeast gene YGL053W): 1.5 | level of expressed mRNA in the presence of chemical substance / level in the absence of chemical substance (yeast gene YGL088W): 2.1 | The level of expressed mRNA in the presence of chemical substance/The level of expressed mRNA in the absence of chemical substance (yeast gene YGL121C): 5.0 | The level of expressed mRNA in the presence of chemical substance/The level of expressed mRNA in the absence of chemical substance (yeast gene YGL199C): 1.7 | level of expressed mRNA in the presence of chemical substance / level in the absence of chemical substance (yeast gene YGR038W): 1.2 | The level of expressed mRNA in the presence of chemical substance/The level of expressed mRNA in the absence of chemical substance (yeast gene YGR101W): 1.3 | The level of expressed mRNA in the presence of chemical substance/The level of expressed mRNA in the absence of chemical substance (yeast gene YGR110W): 3.1 | The level of expressed mRNA in the presence of chemical substance/The level of expressed mRNA in the absence of chemical substance (yeast gene YGR130C): 0.7 | level of expressed mRNA in the presence of chemical substance / level in the absence of chemical substance (yeast gene YGR139W): 3.7 | The level of expressed mRNA in the presence of chemical substance/The level of expressed mRNA in the absence of chemical substance (yeast gene YGR154C): 2.9 | The level of expressed mRNA in the presence of chemical substance/The level of expressed mRNA in the absence of chemical substance (yeast gene YGR221C): 2.2 | level of expressed mRNA in the presence of chemical substance / level in the absence of chemical substance (yeast gene YGR243W): 2.2 | level of expressed mRNA in the presence of chemical substance / level in the absence of chemical substance (yeast gene YGR293C): 1.9 | level of expressed mRNA in the presence of chemical substance / level in the absence of chemical substance (yeast gene YHL006C): 1.4 | level of expressed mRNA in the presence of chemical substance / level in the absence of chemical substance (yeast gene YHR095W): 2.6 | level of expressed mRNA in the presence of chemical substance / level in the absence of chemical substance (yeast gene YHR105W): 0.8 | The level of expressed mRNA in the presence of chemical substance/The level of expressed mRNA in the absence of chemical substance (yeast gene YHR138C): 1.8 | level of expressed mRNA in the presence of chemical substance / level in the absence of chemical substance (yeast gene YHR181W): 0.7 | The level of expressed mRNA in the presence of chemical substance/The level of expressed mRNA in the absence of chemical substance (yeast gene YHR199C): 2.0 | The level of expressed mRNA in the presence of chemical substance/The level of expressed mRNA in the absence of chemical substance (yeast gene YIL023C): 1.2 | The level of expressed mRNA in the presence of chemical substance/The level of expressed mRNA in the absence of chemical substance (yeast gene YIL041W): 1.2 | The level of expressed mRNA in the presence of chemical substance/The level of expressed mRNA in the absence of chemical substance (yeast gene YIL087C): 1.9 | level of expressed mRNA in the presence of chemical substance / level in the absence of chemical substance (yeast gene YIL127C): 4.8 | level of expressed mRNA in the presence of chemical substance / level in the absence of chemical substance (yeast gene YJL017W): 1.7 | level of expressed mRNA in the presence of chemical substance / level in the absence of chemical substance (yeast gene YJL037W): 1.4 | The level of expressed mRNA in the presence of chemical substance/The level of expressed mRNA in the absence of chemical substance (yeast gene YJL057C): 1.2 | The level of expressed mRNA in the presence of chemical substance/The level of expressed mRNA in the absence of chemical substance (yeast gene YJL066C): 1.2 | The level of expressed mRNA in the presence of chemical substance/The level of expressed mRNA in the absence of chemical substance (yeast gene YJL082W): 0.8
